{"source": "PubChem BioAssay AID328", "about": "(DTP/NCI, 2004)", "system": "BDF1 mice, P388 leukemia ip, median survival T/C", "assay": "NCI In Vivo Anticancer Drug Screen. Data for tumor model P388 Leukemia (intraperitoneal) in B6D2F1 (BDF1) mice", "conditions": "endpoint: median survival time, higher = longer survival", "summary_of_the_method": "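Compound-treated tumour-bearing mice were compared with vehicle-treated controls. Survival was recorded, and the value is the treated-group measurement divided by the control-group measurement (T/C).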", "note": "Several values for one entry are separate records, joined by “and”; a condition that tells them apart may be missing. Equal entries are not always repeated. Toxic doses and inconclusive results are not listed.", "data": [{"smiles": "O=C(SCO)c1ccccc1", "values": [{"measurement": "T/C", "setting": "dose: 100.0 mg/kg/injection, schedule: Q04DX003 (sc), vehicle: olive oil, sesame oil, peanut oil", "result": "100 % of control"}, {"measurement": "T/C", "setting": "dose: 200.0 mg/kg/injection, schedule: Q04DX003 (sc), vehicle: olive oil, sesame oil, peanut oil", "result": "110 % of control"}, {"measurement": "T/C", "setting": "dose: 400.0 mg/kg/injection, schedule: Q04DX003 (sc), vehicle: olive oil, sesame oil, peanut oil", "result": "100 % of control"}]}, {"smiles": "O=C(O)c1ccccc1C(=O)Nc1cc(Cl)ccc1Cl", "values": [{"measurement": "T/C", "setting": "dose: 50.0 mg/kg/injection, schedule: Q04DX003 (ip), vehicle: Klucel (hydroxypropylcellulose) (HPC)", "result": "91 % of control"}, {"measurement": "T/C", "setting": "dose: 100.0 mg/kg/injection, schedule: Q04DX003 (ip), vehicle: Klucel (hydroxypropylcellulose) (HPC)", "result": "100 % of control"}]}, {"smiles": "NN=C1CCC(=NN)CC1", "values": [{"measurement": "T/C", "setting": "dose: 12.5 mg/kg/injection, schedule: Q01DX009 (ip), vehicle: water", "result": "100 % of control"}, {"measurement": "T/C", "setting": "dose: 25.0 mg/kg/injection, schedule: Q01DX009 (ip), vehicle: water", "result": "105 % of control and 109 % of control"}, {"measurement": "T/C", "setting": "dose: 25.0 mg/kg/injection, schedule: Q04DX003 (ip), vehicle: water", "result": "90 % of control and 104 % of control"}, {"measurement": "T/C", "setting": "dose: 50.0 mg/kg/injection, schedule: Q01DX009 (ip), vehicle: water", "result": "103 % of control and 113 % of control and 114 % of control"}, {"measurement": "T/C", "setting": "dose: 50.0 mg/kg/injection, schedule: Q04DX003 (ip), vehicle: water", "result": "95 % of control and 114 % of control and 118 % of control"}, {"measurement": "T/C", "setting": "dose: 100.0 mg/kg/injection, schedule: Q04DX003 (ip), vehicle: water", "result": "102 % of control and 111 % of control"}, {"measurement": "T/C", "setting": "dose: 200.0 mg/kg/injection, schedule: Q04DX003 (ip), vehicle: water", "result": "92 % of control"}]}, {"smiles": "CCOC(=O)/C=C(\\C)Sc1cc(O)c2ccccc2c1O", "values": [{"measurement": "T/C", "setting": "dose: 3.13 mg/kg/injection, schedule: Q01DX009 (ip), vehicle: saline with Tween-80", "result": "102 % of control"}, {"measurement": "T/C", "setting": "dose: 6.25 mg/kg/injection, schedule: Q01DX009 (ip), vehicle: saline with Tween-80", "result": "103 % of control"}]}, {"smiles": "CC(=O)C/C(C)=N\\NC(=S)SCc1ccccc1", "values": [{"measurement": "T/C", "setting": "dose: 75.0 mg/kg/injection, schedule: Q01DX009 (ip), vehicle: saline with Tween-80", "result": "90 % of control"}, {"measurement": "T/C", "setting": "dose: 150.0 mg/kg/injection, schedule: Q01DX009 (ip), vehicle: saline with Tween-80", "result": "97 % of control"}, {"measurement": "T/C", "setting": "dose: 300.0 mg/kg/injection, schedule: Q01DX009 (ip), vehicle: saline with Tween-80", "result": "92 % of control"}]}, {"smiles": "CCCCC(=O)OCC(=O)[C@]1(O)Cc2c(O)c3c(c(O)c2[C@@H](OC2CC(NC(=O)C(F)(F)F)C(O)C(C)O2)C1)C(=O)c1c(OC)cccc1C3=O", "note": "(stereo not given in full)", "values": [{"measurement": "T/C", "setting": "dose: 5.0 mg/kg/injection, schedule: Q01DX004 (ip), vehicle: other", "result": "162 % of control"}, {"measurement": "T/C", "setting": "dose: 10.0 mg/kg/injection, schedule: Q01DX004 (ip), vehicle: other", "result": "155 % of control and 189 % of control"}, {"measurement": "T/C", "setting": "dose: 13.0 mg/kg/injection, schedule: Q01DX004 (ip), vehicle: saline with Tween-80", "result": "203 % of control"}, {"measurement": "T/C", "setting": "dose: 20.0 mg/kg/injection, schedule: Q01DX004 (ip), vehicle: other", "result": "288 % of control and 187 % of control"}, {"measurement": "T/C", "setting": "dose: 21.0 mg/kg/injection, schedule: Q01DX004 (ip), vehicle: saline with Tween-80", "result": "221 % of control"}, {"measurement": "T/C", "setting": "dose: 21.6 mg/kg/injection, schedule: Q01DX004 (ip), vehicle: saline with Tween-80", "result": "221 % of control"}, {"measurement": "T/C", "setting": "dose: 25.2 mg/kg/injection, schedule: Q04DX003 (ip), vehicle: other", "result": "175 % of control"}, {"measurement": "T/C", "setting": "dose: 30.0 mg/kg/injection, schedule: Q01DX004 (ip), vehicle: other", "result": "263 % of control and 351 % of control"}, {"measurement": "T/C", "setting": "dose: 36.0 mg/kg/injection, schedule: Q01DX004 (ip), vehicle: saline with Tween-80", "result": "353 % of control"}, {"measurement": "T/C", "setting": "dose: 40.0 mg/kg/injection, schedule: Q01DX004 (ip), vehicle: other", "result": "98 % of control"}, {"measurement": "T/C", "setting": "dose: 42.0 mg/kg/injection, schedule: Q04DX003 (ip), vehicle: other", "result": "262 % of control"}, {"measurement": "T/C", "setting": "dose: 50.0 mg/kg/injection, schedule: Q01DX004 (ip), vehicle: other", "result": "86 % of control"}, {"measurement": "T/C", "setting": "dose: 70.0 mg/kg/injection, schedule: Q04DX003 (ip), vehicle: other", "result": "506 % of control"}]}, {"smiles": "Cc1ccccc1C(O)c1ccccc1Cl", "note": "(stereo not given)", "values": [{"measurement": "T/C", "setting": "dose: 100.0 mg/kg/injection, schedule: Q01DX001 (ip), vehicle: saline sonified", "result": "100 % of control"}, {"measurement": "T/C", "setting": "dose: 200.0 mg/kg/injection, schedule: Q01DX001 (ip), vehicle: saline sonified", "result": "100 % of control"}, {"measurement": "T/C", "setting": "dose: 400.0 mg/kg/injection, schedule: Q01DX001 (ip), vehicle: saline sonified", "result": "100 % of control"}]}, {"smiles": "CC[NH-].CC[NH-].[Br][Pt+2][Br]", "values": [{"measurement": "T/C", "setting": "dose: 20.0 mg/kg/injection, schedule: Q04DX003 (ip), vehicle: other", "result": "100 % of control"}, {"measurement": "T/C", "setting": "dose: 30.0 mg/kg/injection, schedule: Q04DX003 (ip), vehicle: other", "result": "158 % of control"}, {"measurement": "T/C", "setting": "dose: 44.0 mg/kg/injection, schedule: Q04DX003 (ip), vehicle: other", "result": "154 % of control and 166 % of control"}, {"measurement": "T/C", "setting": "dose: 66.0 mg/kg/injection, schedule: Q04DX003 (ip), vehicle: other", "result": "159 % of control"}, {"measurement": "T/C", "setting": "dose: 100.0 mg/kg/injection, schedule: Q04DX003 (ip), vehicle: other", "result": "166 % of control and 168 % of control"}, {"measurement": "T/C", "setting": "dose: 150.0 mg/kg/injection, schedule: Q04DX003 (ip), vehicle: other", "result": "154 % of control"}, {"measurement": "T/C", "setting": "dose: 200.0 mg/kg/injection, schedule: Q04DX003 (ip), vehicle: other", "result": "162 % of control"}]}]}
